Measurements reported in US20250325467A1, “COMPOSITIONS FOR PREVENTING OR TREATING SKIN AGING” (ESTETRA SRL, priority 2021, published 2025).
Entries after “also recorded” stand apart in the source; their conditions may differ.

Tests used:
[1] = system: mouse lymphoma cell line L5178Y TK^+/−; experiment: Generation of reactive oxygen species (ROS) in mouse lymphoma cells; assay type: cell-based; details: test item 1 to 3000 μM; 3 h exposure; vs vehicle control; three experiments
Method: The objective of the study was to investigate the generation of reactive oxygen species (ROS) induced by the test item, estetrol (E4), in a mouse lymphoma cell line L5178Y TK^+/−.
L5178Y TK^+/− cells in logarithmic phase of growth were plated in black 96 well cell culture plates at 1×10^4 cells in 90 μL of cell culture media. Controls and test item in triplicate were applied to the cells as a 10× concentrate in 10 μL of a 10% ethanol solution in PBS (final concentration of ethanol on plate was 1%). Cells were incubated for 3 hours at 37° C., 5% CO2, and the generation of ROS was evaluated by fluorescence with a ROS reagent: the ROS reagent was freshly prepared by dissolving one ampoule of reagent (50 μg) in 70 μL DMSO and further diluting this with 2.1 mL of pre-warmed PBS. 10 μL of ROS reagent was added to each well and the plate were shaken for 30 seconds in the dark. The plates were incubated approximately at 37° C., 5% CO2 for 1 h 30 min and fluorescence was read on a plate scanner with excitation at 492 nm and emission at 520 nm.

[2] = system: Normal Human Epidermal Keratinocytes (NHEKs); experiment: Colonization of a standard acellular area (IBIDI chamber gap closure) by keratinocytes; assay type: cell-based; details: vs ethanol control, 6 h and 24 h; for NHEK Proliferation & Migration (colonization of the acellular area): absence of MMC; for NHEK Migration (+MMC) (colonization of the acellular area): presence of MMC
Method: The study consists in an in vitro assay aiming to evaluate the properties of E4 and E2 at 4 concentrations each on keratinocytes and fibroblasts. In this assay, the measurement of the colonization of a standard acellular surface generated from a confluent monolayer of cells using a dedicated culture device (IBIDI chamber) is performed. The assay is performed in absence and in presence of a proliferation inhibitor to focus on cell proliferation and migration or on migration only, respectively.
The study was performed using cultures of Normal Human foreskin-derived Epidermal Keratinocytes (NHEKs, Lonza). The cells were grown in serum free Epilife medium (ThermoFisher Scientific) supplemented with Human Keratinocyte Growth Supplement (HKGS, ThermoFisher Scientific) and antibiotics. The cells were maintained in a humidified incubator at 37° C. with a 5% CO2 atmosphere.
Cells were plated in 2-well silicone inserts with a defined cell free gap (IBIDI chambers; IBIDI GmbH, 80209) that was previously inserted on 12-well culture plates. This culture device allows to create a standardized 500 μm±100 μm cell free gap for monitoring cell colonization. 24 h after seeding, when the culture reached high confluency, cells in the insert were treated, or not, with mitomycin C (MMC) at 10 μg/ml during 2 h. After these 2 hours, the insert was removed, and cells were treated with E2 or E4 in presence or not of MMC for additional 2 h. Then, if appropriate, the culture medium was removed and cells were treated with E2 or E4 for 22 h, in absence of MMC.
For the assay, keratinocytes were plated in Epilife medium without HKGS and all the treatments were performed in this medium. Fibroblasts were plated in DMEM medium containing only 2,5% of FBS and the treatments were performed in absence of FBS.
E2 and E4 were applied at 4 concentrations each (10^−7M, 10^−8M, 10^−9M, 10^−10M). In parallel, cells were treated with a positive control (HKGS 1% for human keratinocytes and PDGF-BB at 10 ng/ml for human fibroblasts).
To monitor cell colonization and to evaluate the gap closure rate, pictures of the gap were taken after different times: at time 0 h, corresponding to the beginning of the treatment with E2 or E4 and to the removal of the culture insert, at time 6 h and at time 24 h (corresponding to the end of the treatments with E2 or E4). Pictures were taken with a microscope Zeiss (Axiover 25-10× objective) and with a camera Invenio2EIII (DeltaPix—Lux-Optic). The colonized areas were quantified from the pictures by the use of the WimAsis platform—WimScratch software. For each insert, 3 pictures were taken at each time. As each condition was performed in triplicates, it means a total of 9 pictures per condition and per time point of acquisition

[3] = system: primary human epidermal keratinocytes; experiment: Keratinocyte migration scratch assay; assay type: cell-based; details: 15% HKGS; E4 10^−10M and 10^−7M; compared with E2
Method: Human skin was transferred to the laboratory in holding media (DMEM containing 4% penicillin-streptomycin and Amphotericin B solution) within 30 minutes of collection. Once defatted, the skin was rinsed in HBSS with 4% PSA followed by DPBS without antibiotics, then cut into thin strips and floated on 0.2% Dispase II in DPBS overnight at 4° C., followed by manual separation of the epidermis from the dermis. Primary human epidermal keratinocytes and primary human dermal fibroblasts were then isolated.
Confluent wells of both primary keratinocytes and fibroblasts were subjected to a highly validated scratch wounding procedure (using a 1 mL sterile filter tip). Post-scratching, cells were rinsed with DPBS and cell-specific media containing treatments added to each well. Cells were imaged on a ptychographic live cell imaging platform (Livecyte 2™, Phasefocus) for 24-48 hours. Automated tracking of individual unlabeled cells will be combined with 3D cell measurements to quantify a range of wound-relevant cell parameters including scratch closure rate.
Dose range finding experiments were conducted with E4 (10^−10M to 10^−6M) and E2 with and without Mitomycin C (MMC, to inhibit proliferation) using vehicle as negative controls.

[4] = female, Lister Hooded, rat, in vivo, 0.5 h
Method: Tissue distribution was determined in female rats (partially pigmented and non-pigmented) using [^14C]-estetrol.
A group of six female Lister Hooded rats each received a single oral dose of [^14C]-estetrol. At each selected time (see below) one animal was killed (by overdose of CO2) followed by immediate snap freezing in hexane/solid CO2. The carcasses were retained for examination of the tissue distribution of radioactivity using the technique of quantitative whole body autoradiography (QWBA).
Times for analysis were: (0.5, 8, and 24 hours, 7, 14 and 35 days)
Frozen carcasses were subjected to whole-body autoradiography.
Where concentrations are reported, radioactivity was assumed to be associated with [^14C]-estetrol or any metabolic products derived from [^14C]-estetrol. The specific activities of the dosed test compounds were used for the calculation of concentrations in all cases. Recoveries of radioactivity are reported as percentage of administered radioactivity (% dose). Radioactivity concentrations are also reported as pg equivalents/g.

[5] = in humans; unlike other estrogens; cited from earlier work
[6] = system: mouse BMDM (bone marrow derived monocytes); experiment: Immune cell polarization (qPCR of M1/M2 markers), mouse BMDM; assay type: cell-based; details: activated mouse BMDM; qPCR markers NOS2, ARG1
Method: Immune cell polarization was evaluated in vitro using markers for M1/TH-1 (NOS2) and M2/TH-2 (ARG1) phenotype with human monocytes and mouse monocytes (BMDM bone marrow derived monocytes).
An experiment was conducted to evaluate the anti-inflammatory effects of E4 or vehicle (negative control). qPCR methodology was used to assess the effects of E2 and E4 on immune cell polarization using well validated marker of pro-inflammatory (NOS2 for MI/TH-1 phenotype) and anti-inflammatory (ARG1 for ME/TH-2 phenotype) activity.

- radioactivity based on total dose/tissue, non-pigmented skin [4]: 1.1%
- radioactivity based on total dose/tissue, pigmented skin [4]: 1.7%
Structure (SMILES): C[C@]12CC[C@@H]3c4ccc(O)cc4CC[C@H]3[C@@H]1[C@@H](O)[C@@H](O)[C@@H]2O [E4, 1,3,5 (10)-estratrien-3,15alpha,16alpha,17beta-tetrol]
- levels of ROS [1]: dose-dependent decrease in the levels of ROS
- NHEK Proliferation & Migration (colonization of the acellular area) ([2]; 10^−7M): significantly increased the colonization of the acellular area; also recorded: significantly increases the surface colonized
- NHEK Migration (+MMC) (colonization of the acellular area) ([2]; 10^−7M): significantly increased the colonization of the acellular area; also recorded: significantly increases the surface colonized
- NHEK Proliferation & Migration (colonization of the acellular area) ([2]; 10^−10M): significantly increased the colonization of the acellular area; also recorded: significantly increases the surface colonized
- NHEK Migration (+MMC) (colonization of the acellular area) ([2]; 10^−10M): significantly increased the colonization of the acellular area; also recorded: significantly increases the surface colonized
- impact on keratinocyte migration (wound closure) [3]: higher than the impact of E2
- impact on lipid and triglyceride level [5]: very limited impact on lipid and triglyceride level
- immune cell polarization (monocyte subtype M1/M2) [6]: switch from monocyte subtype M1 (pro-inflammatory) to subtype M2 (healing)
